Measured values as given in publication PMC12667733.

Assay: head-to-tail lactamisation of side-chain-protected linear peptides, PyBOP (2 equiv), DIPEA (3 equiv, added dropwise), overnight at rt under N2; then TFA global deprotection and prep RP-HPLC
Details: the molecule shown is the open-chain precursor, DMF, 1.0 mM, 25.0 °C, 2 steps

Row | SMILES | ring closure, yield over several steps (15-membered ring) | ring closure, yield over several steps (21-membered ring) | further results
1 | C[C@H](N)C(=O)N[C@@H](COC(C)(C)C)C(=O)N[C@@H](Cc1ccc(OC(C)(C)C)cc1)C(=O)N[C@@H](COC(C)(C)C)C(=O)N[C@@H](COC(C)(C)C)C(=O)N[C@@H](CCCCNC(=O)OC(C)(C)C)C(=O)N1CCC[C@H]1C(=O)N[C@@H](Cc1ccccc1)C(=O)N[C@@H](COC(C)(C)C)C(=O)O | – | – | ring closure, yield over several steps (27-membered ring): 62%
2 | Cc1c(C)c(S(=O)(=O)NC(=N)NCCC[C@H](NC(=O)CN)C(=O)N[C@H](C(=O)N[C@@H](CCCCNC(=O)OC(C)(C)C)C(=O)N[C@@H](C)C(=O)O)C(C)C)c(C)c2c1OC(C)(C)C2 [H-Gly-Arg(Pbf)-Val-Lys(Boc)-Ala-OH] | 63% | – | –
3 | CC(C)C[C@H](NC(=O)CN)C(=O)N[C@@H](Cc1cn(C(c2ccccc2)(c2ccccc2)c2ccccc2)cn1)C(=O)N[C@@H](Cc1ccccc1)C(=O)N[C@@H](C)C(=O)N[C@@H](Cc1ccccc1)C(=O)N1CCC[C@H]1C(=O)O [H-Gly-Leu-His(Trt)-Phe-Ala-Phe-Pro-OH] | – | 56% | –
4 | CC(C)C[C@H](NC(=O)CN)C(=O)N[C@@H](COC(C)(C)C)C(=O)N[C@@H](Cc1ccccc1)C(=O)N[C@@H](C)C(=O)N[C@@H](Cc1ccccc1)C(=O)N1CCC[C@H]1C(=O)O [H-Gly-Leu-Ser(tBu)-Phe-Ala-Phe-Pro-OH] | – | 54% | –
5 | Cc1c(C)c(S(=O)(=O)NC(=N)NCCC[C@H](NC(=O)[C@H](Cc2ccc(OC(C)(C)C)cc2)NC(=O)CN)C(=O)N[C@@H](Cc2ccccc2)C(=O)N[C@@H](COC(C)(C)C)C(=O)O)c(C)c2c1OC(C)(C)C2 [H-Gly-Tyr(tBu)-Arg(Pbf)-Phe-Ser(tBu)-OH] | 64% | – | –
6 | CC(C)C[C@H](NC(=O)[C@@H]1CCCN1C(=O)[C@@H](NC(=O)[C@H](Cc1ccc(OC(C)(C)C)cc1)NC(=O)CN)C(C)C)C(=O)N[C@@H](Cc1cn(C(=O)OC(C)(C)C)c2ccccc12)C(=O)N1CCC[C@H]1C(=O)O [H-Gly-Tyr(tBu)-Val-Pro-Leu-Trp(Boc)-Pro-OH] | – | 57% | –
7 | CC(C)[C@H](NC(=O)CN)C(=O)N[C@@H](C)C(=O)N[C@@H](Cc1cn(C(=O)OC(C)(C)C)c2ccccc12)C(=O)N[C@@H](C)C(=O)O [H-Gly-Val-Ala-Trp(Boc)-Ala-OH] | 48% | – | –
8 | CC(C)[C@H](NC(=O)CN)C(=O)N[C@@H](CCCCNC(=O)OC(C)(C)C)C(=O)N[C@@H](Cc1ccc(OC(C)(C)C)cc1)C(=O)N[C@@H](C)C(=O)O [H-Gly-Val-Lys(Boc)-Tyr(tBu)-Ala-OH] | 68% | – | –
9 | CC(C)[C@H](NC(=O)[C@@H]1CCCN1C(=O)[C@@H](NC(=O)CN)C(C)C)C(=O)N[C@@H](Cc1cn(C(=O)OC(C)(C)C)c2ccccc12)C(=O)N[C@@H](C)C(=O)O [H-Gly-Val-Pro-Val-Trp(Boc)-Ala-OH] | – | – | ring closure, yield over several steps (18-membered ring): 51%
10 | CC(C)C[C@H](NC(=O)CNC(=O)[C@H](Cc1cn(C(c2ccccc2)(c2ccccc2)c2ccccc2)cn1)NC(=O)[C@@H](NC(=O)CNC(=O)[C@@H](N)Cc1ccccc1)[C@@H](C)OC(C)(C)C)C(=O)N1CCC[C@H]1C(=O)N[C@@H](C)C(=O)N1CCC[C@H]1C(=O)O [H-Phe-Gly-Thr(tBu)-His(Trt)-Gly-Leu-Pro-Ala-Pro-OH] | – | – | ring closure, yield over several steps (27-membered ring): 57%
